# Source: ChEMBL document CHEMBL4304811, “Development of a Water-Soluble Indolylmaleimide Derivative IM-93 Showing Dual Inhibition of Ferroptosis and NETosis” (ACS Med Chem Lett, 2019)
# Legend:
# [1] = test system: Mast/stem cell growth factor receptor Kit (Homo sapiens), P10721 [V559D,T670I]; test: Binding affinity to human partial length KIT V559D/T670I double mutant (Y545 to D952 residues) expressed in bacterial expression system assessed as residual binding level at 10 uM by Kinomescan method relative to control
# Chain of Mast/stem cell growth factor receptor Kit (Homo sapiens), P10721 [V559D,T670I] (P10721 whole entry V559D/T670I, the tested form may be a part): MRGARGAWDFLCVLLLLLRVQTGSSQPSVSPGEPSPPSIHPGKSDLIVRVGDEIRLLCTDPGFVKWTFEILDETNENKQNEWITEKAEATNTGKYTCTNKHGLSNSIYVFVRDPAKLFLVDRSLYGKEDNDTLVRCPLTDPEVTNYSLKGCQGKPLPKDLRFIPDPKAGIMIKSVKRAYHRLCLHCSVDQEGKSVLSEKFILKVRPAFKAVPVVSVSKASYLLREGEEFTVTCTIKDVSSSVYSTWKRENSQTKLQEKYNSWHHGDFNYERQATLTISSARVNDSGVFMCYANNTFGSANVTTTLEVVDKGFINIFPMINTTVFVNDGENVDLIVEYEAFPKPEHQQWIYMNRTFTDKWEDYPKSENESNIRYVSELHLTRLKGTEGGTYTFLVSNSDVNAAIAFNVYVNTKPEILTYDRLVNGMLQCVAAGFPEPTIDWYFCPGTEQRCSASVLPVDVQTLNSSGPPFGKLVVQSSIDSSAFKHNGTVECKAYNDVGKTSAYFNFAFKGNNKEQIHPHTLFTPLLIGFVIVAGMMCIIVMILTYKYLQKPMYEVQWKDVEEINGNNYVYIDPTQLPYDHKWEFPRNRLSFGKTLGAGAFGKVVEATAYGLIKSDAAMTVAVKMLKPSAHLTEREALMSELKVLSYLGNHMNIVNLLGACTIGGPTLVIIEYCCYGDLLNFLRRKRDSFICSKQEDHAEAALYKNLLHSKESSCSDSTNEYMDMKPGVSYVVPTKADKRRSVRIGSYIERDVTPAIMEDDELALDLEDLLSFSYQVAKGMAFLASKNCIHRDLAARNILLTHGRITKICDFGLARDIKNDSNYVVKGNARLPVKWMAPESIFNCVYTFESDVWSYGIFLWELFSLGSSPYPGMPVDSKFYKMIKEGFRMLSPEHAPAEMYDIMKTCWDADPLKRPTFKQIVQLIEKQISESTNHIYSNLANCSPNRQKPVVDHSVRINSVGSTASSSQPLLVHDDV
# [2] = biological target: TGF-beta receptor type-1 (Homo sapiens) (UniProt P36897); test: Binding affinity to wild-type human partial length TGFBR1 (D179 to M503 residues) expressed in bacterial expression system assessed as residual binding level at 10 uM by Kinomescan method relative to control
# [3] = biological target: MAP/microtubule affinity-regulating kinase 4 (Homo sapiens) (UniProt Q96L34); test: Binding affinity to wild-type human partial length MARK4 (K29 to G340 residues) expressed in bacterial expression system assessed as residual binding level at 10 uM by Kinomescan method relative to control
# [4] = biological target: Maternal embryonic leucine zipper kinase (Homo sapiens) (UniProt Q14680); test: Binding affinity to wild-type human full length MELK (M1 to V651 residues) expressed in bacterial expression system assessed as residual binding level at 10 uM by Kinomescan method relative to control
# [5] = biological target: Microtubule-associated serine/threonine-protein kinase 1 (Homo sapiens) (UniProt Q9Y2H9); test: Binding affinity to wild-type human partial length MAST1 (S346 to V730 residues) expressed in mammalian expression system assessed as residual binding level at 10 uM by Kinomescan method relative to control
# [6] = biological target: Mitogen-activated protein kinase kinase kinase 15 (Homo sapiens) (UniProt Q6ZN16); test: Binding affinity to wild-type human partial length MAP3K15 (T625 to L932 residues) expressed in mammalian expression system assessed as residual binding level at 10 uM by Kinomescan method relative to control
# [7] = biological target: Tyrosine-protein kinase JAK1 (Homo sapiens) (UniProt P23458); test: Binding affinity to wild-type human partial length JAK1 JH2 pseudokinase domain (R537 to D855 residues) expressed in mammalian expression system assessed as residual binding level at 10 uM by Kinomescan method relative to control
# [8] = biological target: Serine/threonine-protein kinase RIO1 (Homo sapiens) (UniProt Q9BRS2); test: Binding affinity to wild-type human full length RIOK1 (M1 to K568 residues) expressed in bacterial expression system assessed as residual binding level at 10 uM by Kinomescan method relative to control
# Chain of Serine/threonine-protein kinase RIO1 (Homo sapiens) (Q9BRS2 whole entry, the tested form may be a part, canonical isoform): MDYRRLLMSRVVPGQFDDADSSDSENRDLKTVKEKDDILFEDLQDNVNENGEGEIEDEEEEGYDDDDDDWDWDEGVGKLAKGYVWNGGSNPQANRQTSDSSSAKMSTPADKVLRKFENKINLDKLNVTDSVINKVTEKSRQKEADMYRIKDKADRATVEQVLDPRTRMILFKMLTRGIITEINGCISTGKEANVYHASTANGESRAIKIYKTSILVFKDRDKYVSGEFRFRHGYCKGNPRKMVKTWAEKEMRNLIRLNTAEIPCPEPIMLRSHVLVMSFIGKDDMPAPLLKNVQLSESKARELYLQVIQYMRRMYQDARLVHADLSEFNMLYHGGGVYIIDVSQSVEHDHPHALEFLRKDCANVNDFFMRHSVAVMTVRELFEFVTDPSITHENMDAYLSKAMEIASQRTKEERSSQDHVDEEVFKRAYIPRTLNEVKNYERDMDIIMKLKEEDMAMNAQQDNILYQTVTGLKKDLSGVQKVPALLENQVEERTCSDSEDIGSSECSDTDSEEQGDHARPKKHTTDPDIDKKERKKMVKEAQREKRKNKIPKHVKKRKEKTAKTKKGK
# [9] = test system: Phosphatidylinositol 4,5-bisphosphate 3-kinase catalytic subunit alpha isoform (Homo sapiens), P42336 [E542K]; test: Binding affinity to human partial length PIK3CA E542K mutant (R108 to N1068 residues) expressed in mammalian expression system assessed as residual binding level at 10 uM by Kinomescan method relative to control
# [10] = biological target: Rhodopsin kinase GRK7 (Homo sapiens) (UniProt Q8WTQ7); test: Binding affinity to wild-type human full length GRK7 (M1 to L553 residues) expressed in mammalian expression system assessed as residual binding level at 10 uM by Kinomescan method relative to control
# Chain of Rhodopsin kinase GRK7 (Homo sapiens) (Q8WTQ7 whole entry, the tested form may be a part): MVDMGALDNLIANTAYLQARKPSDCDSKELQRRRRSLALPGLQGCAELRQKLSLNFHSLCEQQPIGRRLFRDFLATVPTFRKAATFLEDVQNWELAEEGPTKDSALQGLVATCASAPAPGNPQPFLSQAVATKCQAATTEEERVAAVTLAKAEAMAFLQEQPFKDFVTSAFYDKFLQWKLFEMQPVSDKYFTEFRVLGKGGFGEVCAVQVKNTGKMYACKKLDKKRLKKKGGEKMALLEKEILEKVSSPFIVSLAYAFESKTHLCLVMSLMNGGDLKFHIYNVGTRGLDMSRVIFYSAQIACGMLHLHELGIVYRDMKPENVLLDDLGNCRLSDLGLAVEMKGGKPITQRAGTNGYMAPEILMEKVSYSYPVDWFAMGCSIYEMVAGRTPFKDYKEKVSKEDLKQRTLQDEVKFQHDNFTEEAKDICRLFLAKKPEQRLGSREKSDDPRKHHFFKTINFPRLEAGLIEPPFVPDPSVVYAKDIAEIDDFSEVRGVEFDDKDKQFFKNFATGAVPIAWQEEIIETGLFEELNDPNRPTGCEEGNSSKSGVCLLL
# [11] = biological target: Mitogen-activated protein kinase kinase kinase 12 (DLK) (Homo sapiens) (UniProt Q12852); test: Binding affinity to wild-type human full length DLK (M1 to P859 residues) expressed in mammalian expression system assessed as residual binding level at 10 uM by Kinomescan method relative to control
# [12] = biological target: Serine/threonine-protein kinase DCLK1 (Homo sapiens) (UniProt O15075); test: Binding affinity to wild-type human partial length DCAMKL1 (L270 to A662 residues) expressed in mammalian expression system assessed as residual binding level at 10 uM by Kinomescan method relative to control
# [13] = biological target: Dual specificity protein kinase CLK1 (Homo sapiens) (UniProt P49759); test: Binding affinity to wild-type human full length CLK1 (M1 to I484 residues) expressed in bacterial expression system assessed as residual binding level at 10 uM by Kinomescan method relative to control
# [14] = biological target: Dual specificity testis-specific protein kinase 1 (Homo sapiens) (UniProt Q15569); test: Binding affinity to wild-type human full length TESK1 (R37 to S626 residues) expressed in bacterial expression system assessed as residual binding level at 10 uM by Kinomescan method relative to control
# Chain of Dual specificity testis-specific protein kinase 1 (Homo sapiens) (Q15569 whole entry, looked up, the tested form may be a part): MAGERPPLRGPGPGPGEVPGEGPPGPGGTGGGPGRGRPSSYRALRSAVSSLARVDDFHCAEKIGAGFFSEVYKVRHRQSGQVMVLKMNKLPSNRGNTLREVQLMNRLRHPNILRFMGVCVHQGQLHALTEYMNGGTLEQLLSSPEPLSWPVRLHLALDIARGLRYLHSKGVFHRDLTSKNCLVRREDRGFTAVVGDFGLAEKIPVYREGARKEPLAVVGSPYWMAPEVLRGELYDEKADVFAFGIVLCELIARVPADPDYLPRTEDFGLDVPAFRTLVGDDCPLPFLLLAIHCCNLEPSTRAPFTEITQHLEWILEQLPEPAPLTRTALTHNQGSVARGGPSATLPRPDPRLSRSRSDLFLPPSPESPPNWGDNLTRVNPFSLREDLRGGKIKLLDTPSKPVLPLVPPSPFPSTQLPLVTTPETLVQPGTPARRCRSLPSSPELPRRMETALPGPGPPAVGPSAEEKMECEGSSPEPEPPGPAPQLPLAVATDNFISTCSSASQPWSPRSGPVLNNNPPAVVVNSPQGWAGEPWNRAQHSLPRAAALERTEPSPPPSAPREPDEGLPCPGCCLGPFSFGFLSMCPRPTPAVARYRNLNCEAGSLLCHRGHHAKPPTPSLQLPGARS
# [15] = biological target: Ribosomal protein S6 kinase alpha-3 (Homo sapiens) (UniProt P51812); test: Binding affinity to wild-type human partial length C-terminal RSK2 kinase domain 2 (V402 to S715 residues) expressed in mammalian expression system assessed as residual binding level at 10 uM by Kinomescan method relative to control
# Chain of Ribosomal protein S6 kinase alpha-3 (Homo sapiens) (P51812 whole entry, the tested form may be a part): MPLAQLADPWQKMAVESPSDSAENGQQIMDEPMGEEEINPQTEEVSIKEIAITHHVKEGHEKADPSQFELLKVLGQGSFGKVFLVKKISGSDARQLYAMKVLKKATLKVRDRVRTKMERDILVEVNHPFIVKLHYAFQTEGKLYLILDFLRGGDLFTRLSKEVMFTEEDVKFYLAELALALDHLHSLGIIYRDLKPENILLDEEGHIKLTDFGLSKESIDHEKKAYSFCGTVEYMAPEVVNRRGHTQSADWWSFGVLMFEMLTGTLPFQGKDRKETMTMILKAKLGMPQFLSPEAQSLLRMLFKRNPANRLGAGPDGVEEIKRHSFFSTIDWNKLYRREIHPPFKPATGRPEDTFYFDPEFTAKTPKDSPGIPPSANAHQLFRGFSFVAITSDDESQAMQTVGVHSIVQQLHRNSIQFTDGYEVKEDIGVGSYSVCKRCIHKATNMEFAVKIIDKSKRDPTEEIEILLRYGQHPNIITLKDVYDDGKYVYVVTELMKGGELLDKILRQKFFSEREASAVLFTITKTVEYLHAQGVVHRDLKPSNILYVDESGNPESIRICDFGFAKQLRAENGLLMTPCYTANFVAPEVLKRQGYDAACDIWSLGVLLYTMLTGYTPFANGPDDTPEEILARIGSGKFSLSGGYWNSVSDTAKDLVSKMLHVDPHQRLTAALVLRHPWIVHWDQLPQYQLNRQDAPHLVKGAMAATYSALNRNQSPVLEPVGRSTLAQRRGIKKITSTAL
# [16] = biological target: Serine/threonine-protein kinase TAO1 (Homo sapiens) (UniProt Q7L7X3); test: Binding affinity to wild-type human partial length TAOK1 (M1 to A320 residues) expressed in mammalian expression system assessed as residual binding level at 10 uM by Kinomescan method relative to control
# [17] = biological target: Muscle, skeletal receptor tyrosine-protein kinase (Homo sapiens) (UniProt O15146); test: Binding affinity to wild-type human partial length MUSK (M553 to V869 residues) expressed in bacterial expression system assessed as residual binding level at 10 uM by Kinomescan method relative to control
# [18] = biological target: Serine/threonine-protein kinase SIK1 (Homo sapiens) (UniProt P57059); test: Binding affinity to wild-type human partial length SIK (M1 to Y304 residues) expressed in bacterial expression system assessed as residual binding level at 10 uM by Kinomescan method relative to control
# [19] = biological target: Ephrin type-A receptor 2 (Homo sapiens) (UniProt P29317); test: Binding affinity to wild-type human partial length EPHA2 (T593 to V891 residues) expressed in bacterial expression system assessed as residual binding level at 10 uM by Kinomescan method relative to control
# Chain of Ephrin type-A receptor 2 (Homo sapiens) (P29317 whole entry, the tested form may be a part): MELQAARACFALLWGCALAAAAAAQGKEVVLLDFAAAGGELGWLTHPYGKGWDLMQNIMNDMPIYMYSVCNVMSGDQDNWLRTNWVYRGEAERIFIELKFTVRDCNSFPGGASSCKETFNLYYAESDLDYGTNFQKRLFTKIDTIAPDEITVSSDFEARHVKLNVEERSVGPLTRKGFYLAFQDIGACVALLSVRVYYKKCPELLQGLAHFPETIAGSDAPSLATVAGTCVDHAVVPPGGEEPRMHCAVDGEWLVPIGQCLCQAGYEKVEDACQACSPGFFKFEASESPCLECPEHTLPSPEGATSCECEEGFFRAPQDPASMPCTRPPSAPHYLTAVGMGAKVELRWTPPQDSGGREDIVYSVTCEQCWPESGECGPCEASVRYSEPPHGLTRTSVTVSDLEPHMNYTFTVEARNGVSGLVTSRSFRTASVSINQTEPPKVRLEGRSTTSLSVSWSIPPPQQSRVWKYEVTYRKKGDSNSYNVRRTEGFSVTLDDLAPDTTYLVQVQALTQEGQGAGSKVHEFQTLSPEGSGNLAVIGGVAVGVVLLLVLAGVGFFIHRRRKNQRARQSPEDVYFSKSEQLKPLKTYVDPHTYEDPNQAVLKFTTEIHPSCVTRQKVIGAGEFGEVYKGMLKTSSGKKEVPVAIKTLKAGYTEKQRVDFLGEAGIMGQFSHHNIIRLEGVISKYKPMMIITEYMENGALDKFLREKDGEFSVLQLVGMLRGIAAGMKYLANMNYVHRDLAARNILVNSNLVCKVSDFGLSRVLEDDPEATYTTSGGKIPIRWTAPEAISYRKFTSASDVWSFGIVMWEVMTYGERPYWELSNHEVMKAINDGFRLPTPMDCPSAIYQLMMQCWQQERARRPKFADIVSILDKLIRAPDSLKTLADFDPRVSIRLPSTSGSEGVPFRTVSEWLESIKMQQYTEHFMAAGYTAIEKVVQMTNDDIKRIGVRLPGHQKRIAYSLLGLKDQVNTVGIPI
# [20] = biological target: Receptor tyrosine-protein kinase erbB-3 (Homo sapiens) (UniProt P21860); test: Binding affinity to wild-type human partial length ERBB3 (G684 to A987 residues) expressed in mammalian expression system assessed as residual binding level at 10 uM by Kinomescan method relative to control
# [21] = biological target: Activated CDC42 kinase 1 (Homo sapiens) (UniProt Q07912); test: Binding affinity to wild-type human partial length TNK2 (S159 to D474 residues) expressed in bacterial expression system assessed as residual binding level at 10 uM by Kinomescan method relative to control
# [22] = biological target: Leukocyte tyrosine kinase receptor (Homo sapiens) (UniProt P29376); test: Binding affinity to wild-type human partial length LTK (P422 to S744 residues) expressed in bacterial expression system assessed as residual binding level at 10 uM by Kinomescan method relative to control
# [23] = biological target: Serine/threonine-protein kinase NIM1 (Homo sapiens) (UniProt Q8IY84); test: Binding affinity to wild-type human partial length NIM1 (Q44 to N355 residues) expressed in mammalian expression system assessed as residual binding level at 10 uM by Kinomescan method relative to control
# Chain of Serine/threonine-protein kinase NIM1 (Homo sapiens) (Q8IY84 whole entry, the tested form may be a part): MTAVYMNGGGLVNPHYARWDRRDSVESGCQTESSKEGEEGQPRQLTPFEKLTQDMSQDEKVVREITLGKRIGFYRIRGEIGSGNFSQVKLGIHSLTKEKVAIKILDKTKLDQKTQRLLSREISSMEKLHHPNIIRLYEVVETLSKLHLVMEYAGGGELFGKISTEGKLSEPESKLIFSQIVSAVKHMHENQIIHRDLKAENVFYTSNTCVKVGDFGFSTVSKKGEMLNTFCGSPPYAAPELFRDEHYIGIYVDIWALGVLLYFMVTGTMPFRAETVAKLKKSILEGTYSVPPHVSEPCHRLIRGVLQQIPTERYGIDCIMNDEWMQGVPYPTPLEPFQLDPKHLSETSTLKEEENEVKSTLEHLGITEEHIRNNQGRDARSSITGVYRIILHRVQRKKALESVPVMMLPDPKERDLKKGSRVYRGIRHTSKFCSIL
# [24] = biological target: Serine/threonine-protein kinase TAO3 (Homo sapiens) (UniProt Q9H2K8); test: Binding affinity to wild-type human partial length TAOK3 (M1 to T316 residues) expressed in mammalian expression system assessed as residual binding level at 10 uM by Kinomescan method relative to control
smiles,measurement,setting,value
CC(C)N1C(=O)C(NCCCN(C)C)=C(c2cn(C)c3ccccc23)C1=O.Cl,Activity,[1],100%
same,Activity,[2],100%
same,Activity,[3],64%
same,Activity,[4],100%
same,Activity,[5],87%
same,Activity,[6],94%
same,Activity,[7],88%
same,Activity,[8],100%
same,Activity,[9],87%
same,Activity,[10],97%
same,Activity,[11],99%
same,Activity,[12],94%
same,Activity,[13],98%
same,Activity,[14],82%
same,Activity,[15],87%
same,Activity,[16],78%
same,Activity,[17],100%
same,Activity,[18],95%
same,Activity,[19],90%
same,Activity,[20],93%
same,Activity,[21],100%
same,Activity,[22],100%
same,Activity,[23],90%
same,Activity,[24],88%
